# Data published in US20050090433A1 (priority 2002, published 2005).
# What was measured:
# Human albumin = Human albumin (Homo sapiens, UniProt P02768); assay: Protein binding by isothermal titration microcalorimetry; details: Apparent binding affinity Ka, Human albumin, pH 7.4, ± SD of fit
# Protocol: Integrated heat effects, after correction for heats of dilution, were analyzed by non-linear regression using a simple single-site binding model with the standard Microcal ORIGIN software package. Raw data (μcal/sec) for each injection were integrated to give the total heat effect per addition, then divided by amount of injectant to give kcal/mole of injectant. The same integration was applied for control dilution effects, and this was subtracted from the actual titration data. This provided a differential of the binding curve in which the extent of binding is proportional to the total heat liberated (or absorbed). This was then analyzed by non-linear regression methods in terms of various standard binding models.
# [1] = human, in vivo
# Protocol: Adverse events were recorded and assessed for severity and relationship to study drug. Laboratory data (chemistry panel, CBC with differential, urinalysis) were collected and assessed for changes from baseline and out-of-range values. ECG, physical examination, and vital signs were obtained, and changes from baseline were assessed.
# Group B streptococcus = assay: Dalbavancin MIC, baseline isolates of SSTI trial; assay type: cell-based
# bacteria = assay: Minimum bactericidal concentration; assay type: cell-based; details: 24 h, kill at least 99% of bacteria over 24 hour in vitro; in plasma
# Source text: The amount of dalbavancin administered may be any of the dosages disclosed herein.
# [2] = SSTI trial: adverse events; assay type: in vivo, human
# Protocol: This randomized, controlled study evaluated the safety and efficacy of two dose regimens of dalbavancin.
# Each patient who received at least one dose of study drug (ITT population) was evaluated for drug safety through monitoring of adverse events (AE), including abnormal clinical laboratory test results and vital signs. AE were rated by the investigator as to their severity (mild, moderate, severe, life-threatening), and by the relationship to the study drug (not related, unlikely related, possibly related, or probably related).
# Human albumin, sequence (P02768 25-609): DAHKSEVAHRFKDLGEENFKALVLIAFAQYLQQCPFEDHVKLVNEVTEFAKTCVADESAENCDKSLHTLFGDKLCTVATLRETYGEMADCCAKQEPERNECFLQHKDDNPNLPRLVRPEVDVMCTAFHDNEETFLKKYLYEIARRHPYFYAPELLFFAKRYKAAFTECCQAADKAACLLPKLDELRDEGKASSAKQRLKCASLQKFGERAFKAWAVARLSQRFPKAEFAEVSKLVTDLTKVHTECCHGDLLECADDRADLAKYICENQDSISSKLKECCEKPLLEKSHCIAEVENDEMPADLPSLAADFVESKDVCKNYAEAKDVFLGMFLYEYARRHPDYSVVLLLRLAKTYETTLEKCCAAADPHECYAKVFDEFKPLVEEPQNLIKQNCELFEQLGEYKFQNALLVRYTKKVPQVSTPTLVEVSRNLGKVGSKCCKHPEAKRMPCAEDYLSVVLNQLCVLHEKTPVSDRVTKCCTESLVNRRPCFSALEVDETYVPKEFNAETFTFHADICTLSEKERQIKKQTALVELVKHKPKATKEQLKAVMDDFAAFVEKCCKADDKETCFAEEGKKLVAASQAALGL
smiles,measurement,setting,value
CN[C@H]1C(=O)N[C@@H]2Cc3ccc(cc3)Oc3cc4cc(c3O[C@@H]3O[C@H](C(=O)O)[C@@H](O)[C@H](O)[C@H]3NC(=O)CCCCCCCCC(C)C)Oc3ccc(cc3Cl)[C@@H](O)[C@@H]3NC(=O)[C@H](NC(=O)[C@@H]4NC(=O)[C@@H](NC2=O)c2cc(cc(O)c2Cl)Oc2cc1ccc2O)c1ccc(O)c(c1)-c1c(O[C@H]2O[C@H](CO)[C@@H](O)[C@H](O)[C@@H]2O)cc(O)cc1[C@@H](C(=O)NCCCN(C)C)NC3=O [Dalbavancin],Kd,Human albumin; 25° C.,7.41 µM
same,Kd,Human albumin; 37° C.,7.52 µM
same,"Eosinophilia, AE possibly related to study medication",[1],500 µL⁻¹
same,Intensity of reported AEs,[1],all of mild intensity
same,"Dalbavancin MIC, Group B streptococcus","Group B streptococcus; MITT, standard of care group",2 (0.016) mg/L
same,MIC,"Group B streptococcus; Streptococcus, read-out: Dalbavancin MIC, Group B streptococcus, MITT, two-dose group",0.016 µg/mL
same,MBC,bacteria,4 to 10 µg/mL
same,AE leading to discontinuation of study medication,"[2]; human, in vivo",0%
same,≧1 AE,"[2]; human, in vivo",95%
same,≧1 severe AE,"[2]; human, in vivo",2 (10%)
same,Hepatotoxicity or nephrotoxicity,[2]; in vivo,no evidence that dalbavancin induces any degree of clinically significant hepatotoxicity or nephrotoxicity
same,Serious adverse events related to study drug,[2]; in vivo,no serious adverse events related to study drug treatment
same,Tolerability,[2]; in vivo,well tolerated
same,≧1 AE possibly/probably related to treatment,[2]; single-dose (N = 20),55%
same,≧1 AE possibly/probably related to treatment,[2]; two-dose (N = 21),48%
